From publication PMC7821381, “Multi-Targeted Anticancer Activity of Imidazolate Phosphane Gold(I) Compounds by Inhibition of DHFR and TrxR in Breast Cancer Cells” (Frontiers in Chemistry, 2021)

Columns and labels:
[1] = biological target: T1, dihydrofolate reductase (DHFR) (Homo sapiens, UniProt P00374); test: DHFR specific enzymatic activity in lysates of treated MDA-MB231 cells; assay type: cell-based; settings: 8 μM (maximum inhibition)
T1 construct: Cell lysates were collected using Cell Culture Lysis Reagent; endogenous in cells; host or cells: MDA-MB231 and SKBR3 (human breast cancer cells)
T1 sequence (P00374 1-187): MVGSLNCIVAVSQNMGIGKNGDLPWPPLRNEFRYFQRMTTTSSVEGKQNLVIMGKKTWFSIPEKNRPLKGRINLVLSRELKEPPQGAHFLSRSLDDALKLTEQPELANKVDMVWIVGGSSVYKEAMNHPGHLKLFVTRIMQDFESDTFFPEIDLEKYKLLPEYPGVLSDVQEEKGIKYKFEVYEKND
Experimental: (§1) SKBR3, MDA-MB-231 and A17 cells were plated onto 100 mm cell culture dishes (2 × 10^6 cells/ dish). The day after, cells were treated with vehicle alone (DMSO) as control or increasing concentrations of compound 5 and compound 6 in DMEM supplemented with 2% FBS (Invitrogen, Carlsbad, CA) for 4 h or 12 h. Representative pictures of cells treated with compound 5 or 6 at the indicated concentration for 4 or 12 h just before to take cell lysates for the enzymatic tests are reported as supplemental files. Cell lysates were collected using Cell Culture Lysis Reagent (Promega, Madison, WI) supplemented with BSA (1%) and protease inhibitors. DHFR activity was assessed by spectrophotometric assay as reported elsewhere (Wang et al., [2020]) in which the reaction rate was followed by recording the decreasing absorbance at 340 nm due to oxidation of NADPH to NADP^+, using a Shimadzu UV-2450 spectrophotometer. When necessary, because of low protein content in the lysates, the DHFR enzymatic activity was measured by a discontinuous direct HPLC assay using an Agilent 1100 system. HPLC-DAD (Agilent 1100) was used to detect and quantify the presence of NADP^+, as one of the products of DHFR catalyzed reaction, in cell lysates. Fifty microliter of the cell lysate were incubated at 37°C in a reaction mixture containing 760 μl of buffer (0.05 M Hepes pH 7.3), 20 μl of NADPH 4 mM, and 20 μl of dihydrofolate (H2F) 4 mM. The samples for HPLC analysis were prepared as follows: 50 μl aliquots of each mixture were stopped at different times (0, 5, 10, 20, 30, and 60 min) by adding 25 μl of HClO4 1.2 M; after 10 min on ice and centrifugation for 5 min at 12,000 g, 60 μl of each supernatant were neutralized by adding 17.5 μl of K2CO3 0.79 M, kept on ice and centrifuged again. Fifty microliter of the supernatant obtained were directly injected into the reversed phase column for separations of reagents and products of the enzyme catalyzed reaction. The column used is a Supelcosil LC RP 18 (4.6 × 250 mm) with pre-column SupelGuard. The HPLC settings are the same reported in Wang et al. ([2020]). The amounts of product (NADP^+) were determined from the peak areas of the HPLC-separated compounds with reference to appropriate standards. One enzyme unit is defined as the amount of enzyme which catalyzes the reduction of 1 μmol of dihydrofolate, per minute, at 37°C. Enzyme activities were normalized by the protein content, determined by the Bradford assay (Bradford, [1976]).

[2] = test system: thioredoxin reductase (TrxR); settings: A17, 12 h treatment, 6 μM (maximum inhibition); control 4.95 ± 0.08
Experimental: The assay was performed as previously reported (Galassi et al., [2012]) in 0.2 M Na, K-phosphate buffer (pH 7.4) containing 2 mM EDTA. The assay contained 0.12 mM NADPH and different amounts of cell lysate. The reaction was initiated by the addition of 3 mM 5,5′-dithiobis (2-nitrobenzoic acid) (DTNB) and the increase of absorbance was monitored at 412 nm over 5 min at 25°C.
Fig. 3S. Effects of gold(I) compounds 5 and 6 on redox enzyme thioredoxine reductase in A17 cancer cells. Cells were incubated for 12 hours with different amount of tested compounds 5 and 6. After incubation, cells were washed twice with PBS and lysed. TrxR activity was tested by measuring NADPH-dependent reduction of DTNB (Galassi et al, 2012).

[3] = biological target: T2, dihydrofolate reductase (DHFR) (Mus musculus, UniProt P00375); test: DHFR specific enzymatic activity in lysates of treated A17 cells; assay type: cell-based, murine; settings: 6 μM (maximum inhibition)
T2 construct: Cell lysates were collected using Cell Culture Lysis Reagent; endogenous in cells; host or cells: A17 (murine basal-like breast cancer cells)
T2 sequence (P00375 1-187): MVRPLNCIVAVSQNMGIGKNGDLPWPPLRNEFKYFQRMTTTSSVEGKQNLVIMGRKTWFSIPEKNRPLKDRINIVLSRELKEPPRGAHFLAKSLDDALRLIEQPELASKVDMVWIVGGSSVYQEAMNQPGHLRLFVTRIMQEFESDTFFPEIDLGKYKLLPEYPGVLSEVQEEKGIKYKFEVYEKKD
Experimental: as §1

[4] = MDA-MB231, 4 h treatment, control 5.38 ± 0.38
[5] = MDA-MB231, 12 h treatment, control 0.64 ± 0.02
[6] = A17, 4 h treatment, control 1.17 ± 0.06
[7] = A17, 12 h treatment, control 4.77 ± 0.78

4,5-dicyano-imidazolate-1yl-gold(I)-(triphenylphosphane) [Compound 5]
Specific enzymatic activity of DHFR [1, 4]: 2.37 ±0.39 mU/mg
Specific enzymatic activity of DHFR [1, 5]: 0.42 ± 0.01 mU/mg
Specific enzymatic activity of TrxR [2]: 1.84 ± 0.06 (6 μM) mU/mg
Specific enzymatic activity of DHFR [3, 6]: 1.07 ± 0.02 mU/mg
Specific enzymatic activity of DHFR [3, 7]: 1.66 ± 0.07 mU/mg

4,5-dichloro-imidazolate-1yl-gold(I)-(triphenylphosphane) [Compound 6]
Specific enzymatic activity of DHFR [1, 4]: 1.75 ± 0.34 mU/mg
Specific enzymatic activity of DHFR [1, 5]: 0.55 ± 0.002 mU/mg
Specific enzymatic activity of TrxR [2]: 4.21 ± 0.09 (6 μM) mU/mg
Specific enzymatic activity of DHFR [3, 6]: 1.03 ± 0.03 mU/mg
Specific enzymatic activity of DHFR [3, 7]: 2.01 ± 0.14 mU/mg
